# Data taken from US10597388B2, “Pyridazinone herbicides” (FMC CORPORATION, priority 2014, dated 2020).
# What was measured:
# Test in all cases: Test D controlled growth environment herbicide test, pre- and postemergence
# Assay type in all cases: in vivo
# [1] = system: barley, winter (winter barley, Hordeum vulgare)
# Text: (§1) Seeds of plant species selected from bluegrass (annual bluegrass, Poa annua), blackgrass (Alopecurus myosuroides), Canada thistle (Cirsium arvense), canarygrass (Phalaris minor), chickweed (common chickweed, Stellaria media), geranium, cutleaf (cutleaf geranium, Geranium dissectum), galium (catchweed bedstraw, Galium aparine), bromegrass, downy (downy bromegrass, Bromus tectorum), field poppy (Papaver rhoeas), field violet (Viola arvensis), foxtail, green (green foxtail, Setaria viridis), deadnettle (henbit deadnettle, Lamium amplexicaule), ryegrass, Italian (Italian ryegrass, Lolium multiflorum), kochia (Kochia scoparia), lambsquarters (Chenopodium album), oilseed rape (Brassica napus), pigweed (Amaranthus retroflexus), chamomile (scentless chamomile, Matricaria inodora), Russian thistle (Salsola kali), speedwell (bird's-eye speedwell, Veronica persica), barley, spring (spring barley, Hordeum vulgare), wheat, spring (spring wheat, Triticum aestivum), buckwheat, wild (wild buckwheat, Polygonum convolvulus), mustard, wild (wild mustard, Sinapis arvensis), oat, wild (wild oat, Avena fatua), radish, wild (wild radish, Raphanus raphanistrum), windgrass (Apera spica-venti), barley, winter (winter barley, Hordeum vulgare), and wheat, winter (winter wheat, Triticum aestivum) were planted into a silt loam soil and treated preemergence with test chemicals formulated in a non-phytotoxic solvent mixture which included a surfactant.
# (§2) At the same time, these species were planted in pots containing Redi-Earth® planting medium (Scotts Company, 14111 Scottslawn Road, Marysville, Ohio 43041) comprising spaghnum peat moss, vermiculite, wetting agent and starter nutrients and treated with postemergence applications of the test chemicals formulated in the same manner. Plants ranged in height from 2 to 18 cm (1- to 4-leaf stage). Treated plants and controls were maintained in a controlled growth environment for 14 to 21 d after which time all species were compared to controls and visually evaluated. Plant response ratings, summarized in Table D, are based on a scale of 0 to 100 where 0 is no effect and 100 is complete control. A dash (-) response means no test result.
# [2] = system: blackgrass (Alopecurus myosuroides)
# Text: as §1, §2
# [3] = system: bromegrass, downy (downy bromegrass, Bromus tectorum)
# Text: as §1, §2
# [4] = system: chamomile (scentless chamomile, Matricaria inodora)
# Text: as §1, §2
# [5] = system: chickweed (common chickweed, Stellaria media)
# Text: as §1, §2
# [6] = system: field poppy (Papaver rhoeas)
# Text: as §1, §2
# [7] = system: foxtail, green (green foxtail, Setaria viridis)
# Text: as §1, §2
# [8] = system: lambsquarters (Chenopodium album)
# Text: as §1, §2
# [9] = system: mustard, wild (wild mustard, Sinapis arvensis)
# Text: as §1, §2
# [10] = system: oat, wild (wild oat, Avena fatua)
# Text: as §1, §2
# [11] = system: pigweed (Amaranthus retroflexus)
# Text: as §1, §2
# [12] = system: wheat, spring (spring wheat, Triticum aestivum)
# Text: as §1, §2
# [13] = system: wheat, winter (winter wheat, Triticum aestivum)
# Text: as §1, §2
# [14] = system: windgrass (Apera spica-venti)
# Text: as §1, §2
# [15] = Postemergence, 31 g ai/ha, scale 0 to 100 (0 no effect, 100 complete control)
# [16] = Postemergence, 125 g ai/ha, visual rating on scale 0 (no effect) to 100 (complete control), 14 to 21 d
# [17] = Postemergence, 250 g ai/ha, scale 0 to 100 (0 no effect, 100 complete control)
# [18] = Preemergence, 62 g ai/ha, scale 0 to 100 (0 no effect, 100 complete control)
# [19] = Preemergence, 125 g ai/ha, scale 0 to 100 (0 no effect, 100 complete control)
# [20] = Preemergence, 250 g ai/ha, scale 0 to 100, 0 no effect, 100 complete control
# [21] = postemergence, 62 g ai/ha, scale 0 to 100, 0 no effect, 100 complete control
smiles,measurement,setting,value
Cc1nn(C)c(=O)c(-c2c(C)sc3ccc(Br)cc23)c1O [Compound 22],"Plant response rating, Barley, Winter",[1]; [15],0
same,"Plant response rating, Barley, Winter",[1]; [16],0
same,"Plant response rating, Barley, Winter",[1]; [17],5
same,"Plant response rating (scale of 0 to 100), Barley, Winter","[1]; Preemergence, 31 g ai/ha",0
same,"Plant response rating, Barley, Winter",[1]; [18],0
same,"Plant response rating, Barley, Winter",[1]; [19],0
same,"Barley, Winter plant response rating",[1]; [20],0
same,"Plant response rating, Barley, Winter",[1]; [21],0
same,Blackgrass plant response rating,[2]; [15],15
same,"Plant response rating, Blackgrass",[2]; [16],45
same,"Plant response rating, Blackgrass",[2]; [17],70
same,"Plant response rating (scale of 0 to 100), Blackgrass","[2]; Preemergence, 31 g ai/ha",45
same,"Plant response rating, Blackgrass",[2]; [18],45
same,"Plant response rating, Blackgrass",[2]; [19],55
same,Blackgrass plant response rating,[2]; [20],75
same,"Plant response rating, Blackgrass",[2]; [21],20
same,"Bromegrass, Downy plant response rating",[3]; [15],10
same,"Plant response rating, Bromegrass, Downy",[3]; [16],25
same,"Plant response rating, Bromegrass, Downy",[3]; [17],25
same,"Plant response rating (scale of 0 to 100), Bromegrass, Downy","[3]; Preemergence, 31 g ai/ha",0
same,"Plant response rating, Bromegrass, Downy",[3]; [18],5
same,"Plant response rating, Bromegrass, Downy",[3]; [19],25
same,"Plant response rating, Bromegrass, Downy",[3]; [20],80
same,"Plant response rating, Bromegrass, Downy",[3]; [21],10
same,Chamomile plant response rating,[4]; [15],80
same,"Plant response rating, Chamomile",[4]; [16],85
same,"Plant response rating, Chamomile",[4]; [17],100
same,"Plant response rating (scale of 0 to 100), Chamomile","[4]; Preemergence, 31 g ai/ha",95
same,"Plant response rating, Chamomile",[4]; [18],100
same,"Plant response rating, Chamomile",[4]; [19],100
same,"Plant response rating, Chamomile",[4]; [20],100
same,"Plant response rating, Chamomile",[4]; [21],80
same,Chickweed plant response rating,[5]; [15],85
same,"Plant response rating, Chickweed",[5]; [16],98
same,"Plant response rating, Chickweed",[5]; [17],100
same,"Plant response rating (scale of 0 to 100), Chickweed","[5]; Preemergence, 31 g ai/ha",95
same,"Plant response rating, Chickweed",[5]; [18],100
same,"Plant response rating, Chickweed",[5]; [19],100
same,"Plant response rating, Chickweed",[5]; [20],100
same,"Plant response rating, Chickweed",[5]; [21],95
same,Field Poppy plant response rating,[6]; [15],75
same,"Plant response rating, Field Poppy",[6]; [16],100
same,"Plant response rating, Field Poppy",[6]; [17],100
same,"Plant response rating (scale of 0 to 100), Field Poppy","[6]; Preemergence, 31 g ai/ha",0
same,"Plant response rating, Field Poppy",[6]; [18],0
same,"Plant response rating, Field Poppy",[6]; [19],100
same,"Plant response rating, Field Poppy",[6]; [20],100
same,"Plant response rating, Field Poppy",[6]; [21],85
same,"Foxtail, Green plant response rating",[7]; [15],15
same,"Plant response rating, Foxtail, Green",[7]; [16],70
same,"Plant response rating, Foxtail, Green",[7]; [17],75
same,"Plant response rating (scale of 0 to 100), Foxtail, Green","[7]; Preemergence, 31 g ai/ha",0
same,"Plant response rating, Foxtail, Green",[7]; [18],0
same,"Plant response rating, Foxtail, Green",[7]; [19],0
same,"Plant response rating, Foxtail, Green",[7]; [20],20
same,"Plant response rating, Foxtail, Green",[7]; [21],45
same,Lambsquarters plant response rating,[8]; [15],80
same,"Plant response rating, Lambsquarters",[8]; [16],95
same,"Plant response rating, Lambsquarters",[8]; [17],98
same,"Plant response rating (scale of 0 to 100), Lambsquarters","[8]; Preemergence, 31 g ai/ha",100
same,"Plant response rating, Lambsquarters",[8]; [18],100
same,"Plant response rating, Lambsquarters",[8]; [19],100
same,"Plant response rating, Lambsquarters",[8]; [20],100
same,"Plant response rating, Lambsquarters",[8]; [21],85
same,"Mustard, Wild plant response rating",[9]; [15],90
same,"Plant response rating, Mustard, Wild",[9]; [16],100
same,"Plant response rating, Mustard, Wild",[9]; [17],100
same,"Plant response rating (scale of 0 to 100), Mustard, Wild","[9]; Preemergence, 31 g ai/ha",5
same,"Plant response rating, Mustard, Wild",[9]; [18],65
same,"Plant response rating, Mustard, Wild",[9]; [19],85
same,"Plant response rating, Mustard, Wild",[9]; [20],95
same,"Plant response rating, Mustard, Wild",[9]; [21],95
same,"Oat, Wild plant response rating",[10]; [15],65
same,"Plant response rating, Oat, Wild",[10]; [16],85
same,"Plant response rating, Oat, Wild",[10]; [17],100
same,"Plant response rating (scale of 0 to 100), Oat, Wild","[10]; Preemergence, 31 g ai/ha",30
same,"Plant response rating, Oat, Wild",[10]; [18],55
same,"Plant response rating, Oat, Wild",[10]; [19],70
same,"Plant response rating, Oat, Wild",[10]; [20],95
same,"Plant response rating, Oat, Wild",[10]; [21],85
same,Pigweed plant response rating,[11]; [15],85
same,"Plant response rating, Pigweed",[11]; [16],98
same,"Plant response rating, Pigweed",[11]; [17],100
same,"Plant response rating (scale of 0 to 100), Pigweed","[11]; Preemergence, 31 g ai/ha",100
same,"Plant response rating, Pigweed",[11]; [18],98
same,"Plant response rating, Pigweed",[11]; [19],98
same,"Plant response rating, Pigweed",[11]; [20],100
same,"Plant response rating, Pigweed",[11]; [21],95
same,"Wheat, Spring plant response rating",[12]; [15],5
same,"Plant response rating, Wheat, Spring",[12]; [16],10
same,"Plant response rating, Wheat, Spring",[12]; [17],15
same,"Plant response rating (scale of 0 to 100), Wheat, Spring","[12]; Preemergence, 31 g ai/ha",0
same,"Plant response rating, Wheat, Spring",[12]; [18],0
same,"Plant response rating, Wheat, Spring",[12]; [19],10
same,"Plant response rating, Wheat, Spring",[12]; [20],25
same,"Plant response rating, Wheat, Spring",[12]; [21],10
same,"Wheat, Winter plant response rating",[13]; [15],5
same,"Plant response rating, Wheat, Winter",[13]; [16],15
same,"Plant response rating, Wheat, Winter",[13]; [17],15
same,"Plant response rating (scale of 0 to 100), Wheat, Winter","[13]; Preemergence, 31 g ai/ha",0
same,"Plant response rating, Wheat, Winter",[13]; [18],0
same,"Plant response rating, Wheat, Winter",[13]; [19],0
same,"Plant response rating, Wheat, Winter",[13]; [20],5
same,"Plant response rating, Wheat, Winter",[13]; [21],5
same,Windgrass plant response rating,[14]; [15],15
same,"Plant response rating, Windgrass",[14]; [16],35
same,"Plant response rating, Windgrass",[14]; [17],55
same,"Plant response rating (scale of 0 to 100), Windgrass","[14]; Preemergence, 31 g ai/ha",0
same,"Plant response rating, Windgrass",[14]; [18],20
same,"Plant response rating, Windgrass",[14]; [19],70
same,"Plant response rating, Windgrass",[14]; [20],80
same,"Plant response rating, Windgrass",[14]; [21],20
Cc1ccc2ccccc2c1-c1c(O)c(Br)nn(C)c1=O [Compound 23],"Plant response rating, Barley, Winter",[1]; [16],25
same,"Plant response rating, Barley, Winter",[1]; [17],30
same,"Plant response rating, Barley, Winter",[1]; [21],15
same,"Plant response rating, Blackgrass",[2]; [16],75
same,"Plant response rating, Blackgrass",[2]; [17],80
same,"Plant response rating, Blackgrass",[2]; [21],70
same,"Plant response rating, Bromegrass, Downy",[3]; [16],60
same,"Plant response rating, Bromegrass, Downy",[3]; [17],75
same,"Plant response rating, Bromegrass, Downy",[3]; [21],45
same,"Plant response rating, Chamomile",[4]; [16],85
same,"Plant response rating, Chamomile",[4]; [17],100
same,"Plant response rating, Chamomile",[4]; [21],85
same,"Plant response rating, Chickweed",[5]; [16],100
same,"Plant response rating, Chickweed",[5]; [17],100
same,"Plant response rating, Chickweed",[5]; [21],100
same,"Plant response rating, Field Poppy",[6]; [16],100
same,"Plant response rating, Field Poppy",[6]; [17],100
same,"Plant response rating, Field Poppy",[6]; [21],100
same,"Plant response rating, Foxtail, Green",[7]; [16],80
same,"Plant response rating, Foxtail, Green",[7]; [17],90
same,"Plant response rating, Foxtail, Green",[7]; [21],75
same,"Plant response rating, Lambsquarters",[8]; [16],75
same,"Plant response rating, Lambsquarters",[8]; [17],80
same,"Plant response rating, Lambsquarters",[8]; [21],75
same,"Plant response rating, Mustard, Wild",[9]; [16],100
same,"Plant response rating, Mustard, Wild",[9]; [17],100
same,"Plant response rating, Mustard, Wild",[9]; [21],95
same,"Plant response rating, Oat, Wild",[10]; [16],95
same,"Plant response rating, Oat, Wild",[10]; [17],95
same,"Plant response rating, Oat, Wild",[10]; [21],75
same,"Plant response rating, Pigweed",[11]; [16],85
same,"Plant response rating, Pigweed",[11]; [17],100
same,"Plant response rating, Pigweed",[11]; [21],75
same,"Plant response rating, Wheat, Spring",[12]; [16],60
same,"Plant response rating, Wheat, Spring",[12]; [17],60
same,"Plant response rating, Wheat, Spring",[12]; [21],50
same,"Plant response rating, Wheat, Winter",[13]; [16],55
same,"Plant response rating, Wheat, Winter",[13]; [17],70
same,"Plant response rating, Wheat, Winter",[13]; [21],40
same,"Plant response rating, Windgrass",[14]; [16],75
same,"Plant response rating, Windgrass",[14]; [17],85
same,"Plant response rating, Windgrass",[14]; [21],70
